Reference: US7855232B2, “Organoselenium compound for cancer chemoprevention” (LKT Laboratories, Inc., priority 2001, dated 2010)
Marks after values point to notes of the source that are not given here.

How the values were obtained:
[1] = test system: Glutathione S-Transferase; test: Glutathione S-transferase (GST) activity in tissue cytosol of treated mice, CDNB substrate; assay type: in vivo, Female A/J mice; settings: for Ratio Test/con (GST): gavage; for GST act.: gavage in corn oil
Method: The activity of cytosolic was assayed according to the method of Habig et al. using 1-chloro-2,4-dinitrobenzene (CDNB) as the substrate. Habig et al, J. Biol. Chem. 249:7130-7139 (1974). The complete solution contains, in a total volume of 2.0 mL, 0.1 M phosphate buffer, pH 6.5, 5 mM glutathione, 1 mM CDNB, and 20 μL of the cytosol. The reaction was monitored at 340 nm in a Beckman Model DU65 UV-VIS spectrophotometer. Assays were performed at 30° C. Complete assay mixture without the cytosolic enzyme was used as the reference blank. Data as analyzed by the Student's “t” test and P values were obtained in comparison to the control.

GSH = test: Glutathione (GSH) concentration in tissues of treated mice, HPLC; assay type: in vivo, Female A/J mice; settings: for Ratio Test/con (GSH): gavage; for GSH conc.: gavage in corn oil
Method: GSH was quantitated by modification of the procedure Siller-Cepeda et al. Plant Cell Physiol. 32:1179-1185 (1991). Aliquots of tissue homogenates were mixed with equal volumes of 20% PCA containing 2 mM BPDS. Vortex, centrifuge at 7800×g for 15 minutes at 4° C. and 250 μl supernatant transferred into a microfuge tube containing 25 μl of γ-glu-glu as internal standard. The samples were carboxymethylated with 25 μl of 100 mM iodoacetic acid dissolved in 0.2 mM m-cresol purple sodium salt solution. The pH of the solution was adjusted to 9-10 by adding 350 μl of KOH (2M)-KHCO3 (2.4 M) mixture and incubated in the dark for 15 minutes. After carboxymethylation, the samples were derivatized with 500 μl of 1% dinitrofluorobenzene (DNFB) and kept in the dark at 4° C. overnight. The samples were centrifuged at 13,000×g for 15 minutes, filtered through 0.2 μm filter, and were analyzed with a SHIMADZU two-pump gradient HPLC system. Samples were injected by a SHIMADZU SIL-10AV Autoinjector onto a Varian 3-aminopropyl MICROSORB-MV column (4.6×250 mm) operated at ambient temperature with a flow rate of 1 ml/min. Absorbance of the dinitrophenyl derivatives was monitored at 365 nm. The amount of GSH was calculated from a standard curve using γ-glu-glu as internal standard.

[2] = test system: UDP-Glucuronosyltransferase (UDP-GT); test: UDP-glucuronosyltransferase (UDP-GT) activity in liver microsomes of treated mice, o-aminophenol substrate; assay type: in vivo, Female A/J mice; settings: for Ratio Test/con (UDP-GT): gavage; for UDP-GT activity (column head prints GSH conc.): gavage in corn oil
Method: Microsomal samples were assayed for enzymatic conjugation by modifying the procedure of Zakim et al., Methods of Biochemical Analysis, ed. David Glick, 21:1-37, (1973). using o-aminophenol as the substrate. The complete assay solution contains, in a total volume of 500 μl, 0.25 M phosphate buffer (pH 7.6), 0.002 M o-aminophenol, 0.05 M UDPGA, 0.125 M magnesium chloride and 100 μl microsomes. The mixture was incubated for 30 minutes. Reactions were stopped by the addition of 500 μl of TCA-sodium phosphate reagent. The precipitated protein was removed, 100 μl of 0.05% sodium nitrite was added to 950 μl of the supernatent solution and allowed to stand for 5 minutes. 100 μl of 0.5% ammonium sulfamate was added, after 5 minutes. 100 μl of 0.12% N-(-1-naphthyl)ethylenediamine dihydrochloride was added and incubated for 2 hours in the dark; and the difference in the optical density between the blanks and the samples were recorded at 555 nm in a Beckman model DU65 UV-VIS spectrophotometer. The UDP-GT activity was calculated using the extinction coefficient 29 mM-1 cm-1 for the coupled product.

aberrant crypts (AC) = test: Inhibition of DMH-induced aberrant crypt (AC) formation in colon; assay type: in vivo, Female CF1 mice; settings: high dose 0.04 mmol/kg body weight, gavage, without DMH
Excerpt: Precancerous lesions called aberrant crypts (AC) are used as a marker for colon carcinogenesis. Mice and rats, when exposed to colon-specific carcinogen, develop preneoplastic changes in colon crypts which leads to malignancy through dysplasia-carcinoma sequence. […] McLellan et al., Cancer Res. 48:6183-6186 (1988); McLellan et al., Cancer Res. 48:2311-2315 (1988).
The effect of colon-specific carcinogenesis is typically seen in the induction of AC formation in less than two weeks. AC formation is dose dependent and can be quantitated without elaborate instrumentation. In view of the short time-frame required to get quantifiable results, this bio-assay is a useful prescreening tool for the evaluation of chemopreventative efficacy of compounds that are effective against colon cancer. The protocol for aberrant crypts is shown below:
Female CF1 mice, 3 weeks of age, were purchased from Harlan Sprague-Dawley, Indianapolis, 1N. They were housed, 5 mice per cage, in temperature and humidity-controlled animal quarters with 12 hours light/dark cycle and fed AIN 76A semipurified diet until the ent of the experiment. Water was given ad libitim. The animals were separated into experimental and control groups. The test compounds 0.03-0.04 mmol/kg body weight dissolved in 0.3 mL corn oil, were given by gavage one per day for 8 days. One hour after the inhibitors administration on the 4th and 8th days, 0.4 mg of DMH in 0.2 mL of 0.001 M EDTA, adjusted to pH 6.5 with sodium bicarbonate, was given by gavage. Starting on the 9th day, the inhibitors were given once every other day for an additional 3 weeks. This regimen of inhibitor administration ensures the coverage both the initiation and post initiation periods of carcinogen exposure.
At the end of the 3 week period, the animals were sacrificed and the colons removed. The starting and terminating weights of the animals were recorded. The procedures for the determination of aberrant crypts were those reported by Bird (Cancer Letters 37:147-151 (1987)). The mouse colon including the caecum was removed, rinsed with PBS, and opened longitudinally. The colon contents was removed by washing with PBS. The colon was spread mucosal side up on a piece of filter paper and fixed in buffered formalin overnight. It was then stained with 0.2% methylene blue in PBS for 60 min. The AC foci was read under light microscope. The AC are topographically distinguished by their increased size, increased pericryptal zone, and thicker and deeply stained epithelial lining compared to normal crypts. The number of foci and AC in the colorectal and caecal parts of the colon were recorded separately. The significance of the data was determined by the analysis of variance method. The significance of the incidence of aberrant crypts bearing animals was analyzed by the X^2 test. The aberrant crypts were examined histologically to verify the dysplastic nature of the changes in animals treated with carcinogens and those treated with carcinogens and inhibitors.

[3] = colon, dose 0.02 mmol/Kg body weight
[4] = colon, dose 0.04 mmol/Kg body weight
[5] = forestomach, dose 0.02 mmol/Kg body weight
[6] = forestomach, dose 0.04 mmol/Kg body weight
[7] = liver, dose 0.02 mmol/Kg body weight
[8] = liver, dose 0.04 mmol/Kg body weight
[9] = lung, dose 0.02 mmol/Kg body weight
[10] = lung, dose 0.04 mmol/Kg body weight
[11] = small intestinal mucosa, dose 0.02 mmol/Kg body weight
[12] = small intestinal mucosa, dose 0.04 mmol/Kg body weight

In the case of `[Se]=C=NCc1ccc(CN=C=[Se])s1` [(6) TDMISC, thienyl-2,5-di-methylene isoselenocyanate], the “Ratio Test/con (GST)” value [1, 3] was 1.12, the GST act. [1, 3] was 0.73 ± 0.026 ^g μmol/min mg protein and the “Ratio Test/con (GST)” value [1, 4] was 1.14. For the same compound, the GST act. [1, 4] was 0.74 ± 0.04 ^f μmol/min mg protein, the “Ratio Test/con (GST)” value [1, 5] was 0.93 and the GST act. [1, 5] was 1.03 ± 0.20 μmol/min mg protein. The “Ratio Test/con (GST)” value [1, 6] was 1.11, the GST act. [1, 6] was 1.23 ± 0.35 μmol/min mg protein and the “Ratio Test/con (GST)” value [1, 7] was 1.90. The GST act. [1, 7] was 2.43 ± 0.46 ^e μmol/min mg protein, the “Ratio Test/con (GST)” value [1, 8] was 2.53 and the GST act. [1, 8] was 3.24 ± 0.39 ^e μmol/min mg protein. The “Ratio Test/con (GST)” value [1, 9] was 1.29, the GST act. [1, 9] was 0.44 ± 0.04 ^f μmol/min mg protein and the “Ratio Test/con (GST)” value [1, 10] was 1.73. For the same compound, the GST act. [1, 10] was 0.59 ± 0.29 μmol/min mg protein, the “Ratio Test/con (GST)” value [1, 11] was 2.45 and the GST act. [1, 11] was 0.54 ± 0.11 ^e μmol/min mg protein. The “Ratio Test/con (GST)” value [1, 12] was 2.41, the GST act. [1, 12] was 0.53 ± 0.03 ^c μmol/min mg protein and the “Ratio Test/con (GSH)” value (GSH; [7]) was 0.95. For the same compound, the GSH conc. (GSH; [7]) was 3.38 ± 1.11 μmol/gm tissue weight, the “Ratio Test/con (GSH)” value (GSH; [8]) was 1.49 and the GSH conc. (GSH; [8]) was 5.29 ± 1.09 μmol/gm tissue weight. The “Ratio Test/con (GSH)” value (GSH; [11]) was 1.07, the GSH conc. (GSH; [11]) was 2.26 ± 1.87 μmol/gm tissue weight and the “Ratio Test/con (GSH)” value (GSH; [12]) was 1.76. For the same compound, the GSH conc. (GSH; [12]) was 3.71 ± 0.31^d μmol/gm tissue weight, the “Ratio Test/con (UDP-GT)” value ([2]; dose 0.02 mmol/Kg body weight) was 1.50 and the “UDP-GT activity (column head prints GSH conc.)” value ([2]; dose 0.02 mmol/Kg body weight) was 6.08 ± 0.76 ^d nmol/min/mg protein. For the same compound, the “Ratio Test/con (UDP-GT)” value ([2]; dose 0.04 mmol/Kg body weight) was 1.49, the “UDP-GT activity (column head prints GSH conc.)” value ([2]; dose 0.04 mmol/Kg body weight) was 7.98 ± 2.49 nmol/min/mg protein and the “% animals” value (aberrant crypts (AC)) was 0.0%. It also gave an AC/Colon (aberrant crypts (AC)) of 0.00, an AC/Foci (aberrant crypts (AC)) of 0.00 and an ACF/Colon (aberrant crypts (AC)) of 0.00. For the same compound, the “Total AC” value (aberrant crypts (AC)) was 0 and the “Total ACF” value (aberrant crypts (AC)) was 0.

Compound `N#C[Se]C([Se]C#N)c1cccs1` [(1) TMSC, 2-thienyl methylene selenocyanate] has a melting point of 48 to 50 °C.
